The values below come from ChEMBL document CHEMBL3046336, “Assessment of the impact of insecticides on Anagrus nilaparvatae (Pang et Wang) (Hymenoptera: Mymanidae), an egg parasitoid of the rice planthopper, Nilaparvata lugens (Hemiptera: Delphacidae)” (Crop Prot, 2008).

Some results are limits rather than exact numbers.

A short description of series [1]: Acute contact toxicity against adult Anagrus nilaparvatae assessed as dead parasitoid wasps compound treated for 1 hr measured after 8 hr wash-out period.
Series [2] is described as follows: Acute oral toxicity against female adult Anagrus nilaparvatae in petridish under laboratory conditions assessed as mortality compound treated as emulsible concentrate with acetone and Triton X-100 measured after 1 to 8 hr. The note with it: in vivo.
Series [3] is described as follows: Residual toxicity against compound treated rice leaves-fed adult Anagrus nilaparvatae assessed as mortality measured on day 0 post insecticide treatment to plant. The settings on record: in vivo, oral.
Series [4] can be described thus: Chronic toxicity against female adult Anagrus nilaparvatae in petridish under laboratory conditions assessed as reduction in longetivity compound treated as emulsible concentrate with acetone and Triton X-100 relative to untreated control. The arrangement: scale not given: the % may be the effect or the level left.
A short description of series [5]: Chronic toxicity against female adult Anagrus nilaparvatae in petridish under laboratory conditions assessed as reduction in fecundity compound treated as emulsible concentrate with acetone and […] relative to untreated control. Set-up: scale not given: the % may be the effect or the level left.
The nature of series [6]: Acute oral toxicity against female adult Anagrus nilaparvatae in petridish under laboratory conditions assessed as mortality compound treated as emulsible concentrate with acetone and Triton X-100 measured after 8 hr. The settings on record: in vivo.
Series [7] can be described thus: Residual toxicity against compound treated rice leaves-fed adult Anagrus nilaparvatae assessed as mortality measured on day 7 post insecticide treatment to plant. The settings on record: in vivo.
Series [8] can be described thus: Acute oral toxicity against female adult Anagrus nilaparvatae in petridish under laboratory conditions assessed as mortality compound treated as emulsible concentrate with acetone and Triton X-100 measured after 2 hr. The settings on record: in vivo.
Series [9] is described as follows: Acute oral toxicity against female adult Anagrus nilaparvatae in petridish under laboratory conditions assessed as mortality compound treated as emulsible concentrate with acetone and Triton X-100 measured after 4 hr. The note with it: in vivo.

As for `CC[C@H](C)[C@H]1O[C@]2(C=C[C@@H]1C)C[C@@H]1C[C@@H](C/C=C(\C)[C@@H](O[C@H]3C[C@H](OC)[C@@H](O[C@H]4C[C@H](OC)[C@@H](O)[C@H](C)O4)[C@H](C)O3)[C@@H](C)/C=C/C=C3\CO[C@@H]4[C@H](O)C(C)=C[C@@H](C(=O)O1)[C@]34O)O2.CO[C@H]1C[C@H](O[C@H]2[C@H](C)O[C@@H](O[C@@H]3/C(C)=C/C[C@@H]4C[C@@H](C[C@]5(C=C[C@H](C)[C@@H](C(C)C)O5)O4)OC(=O)[C@@H]4C=C(C)[C@@H](O)[C@H]5OC/C(=C\C=C\[C@@H]3C)[C@]54O)C[C@@H]2OC)O[C@@H](C)[C@@H]1O` [ABAMECTIN], the LC50 in [1] is recorded as 8.499 mgAi/L.

Consider `CC(C)N1C(=O)N(c2ccccc2)CS/C1=N\C(C)(C)C` [BUPROFEZIN], for which the LC50 in series [1] is reported as greater than 1000 mgAi/L. Besides, the mortality (in general, the share of the test organisms that died) in [2] turned out to be 29.4%. In [3], the mortality at 0 day amounted to 1.1%.

Turning to `O=C(NC(=O)c1c(F)cccc1F)Nc1cc(Cl)c(Oc2ncc(C(F)(F)F)cc2Cl)c(Cl)c1` [CHLORFLUAZURON], the Activity came to 29% in series [4] and 49% in series [5]. The LC50 in [1] was greater than 1000 mgAi/L. Further, the mortality in [2] came to 4%.

`CCOP(=S)(OCC)Oc1nc(Cl)c(Cl)cc1Cl` [CHLORPYRIFOS]: the mortality at 8 h in [6] stood at 100%. For the same molecule, in [1], the LC50 is given as 0.002 mgAi/L. The mortality at 7 day in [7] (oral) was less than 10%.

As for `COP(=O)(OC)OC=C(Cl)Cl` [DICHLORVOS], in series [8], the mortality at 2 h was 100%. Besides, the mortality at 8 h in series [6] came to 100%. In addition, the LC50 in series [1] was 15.946 mgAi/L.

`N#Cc1nn(-c2c(Cl)cc(C(F)(F)F)cc2Cl)c(N)c1[S+]([O-])C(F)(F)F` (configuration not stated) [FIPRONIL]: in series [6], the mortality at 8 h turned out to be 100%. For the same molecule, the LC50 in [1] is recorded as 0.18 mgAi/L. For the same molecule, the mortality at 7 day in series [7] (oral) worked out at 50%.

`Cc1cc(C)cc(C(=O)N(NC(=O)c2ccc3c(c2C)OC(C)C3)C(C)(C)C)c1` (configuration not stated) [FUXIAN]: the Activity came to 29% in series [4] and 47% in series [5]. The LC50 in [1] is on record as greater than 1000 mgAi/L. For the same molecule, the mortality in series [2] was 1.1%.

For the molecule `O=C(NC(=O)c1c(F)cccc1F)Nc1cc(Cl)c(OC(F)(F)C(F)F)c(Cl)c1` [HEXAFLUMURON], the Activity in series [4] worked out at 24%; in series [5] it was 28%. Besides, the LC50 in [1] is greater than 1000 mgAi/L. Also, the mortality in series [2] was 1.3%.

Regarding `O=[N+]([O-])NC1=NCCN1Cc1ccc(Cl)nc1` [IMIDACLOPRID], the Activity result in series [9] is given as “Toxic”. Moreover, in series [1], the LC50 is on record as 0.021 mgAi/L. Besides, the mortality at 0 day in series [3] was 97.6%. For the same molecule, in series [7] (oral), the mortality at 7 day is 80.7%.

For `CNC(=O)Oc1ccccc1C(C)C` [ISOPROCARB], the Activity result in series [9] is “Toxic”. Moreover, the LC50 in series [1] amounted to 1.071 mgAi/L.

Regarding `COP(N)(=O)SC` (configuration not stated) [METHAMIDOPHOS], in series [6], the mortality at 8 h amounted to 100%. Also, in [7] (oral), the mortality at 7 day was less than 10%.

Consider `CCOc1ccc([Si](C)(C)CCCc2ccc(F)c(Oc3ccccc3)c2)cc1` [SILAFLUOFEN], for which the mortality at 8 h in [6] was determined as 37.6%. Moreover, in series [1], the LC50 is on record as 14.22 mgAi/L. The mortality at 7 day in series [7] (oral) is 1.1%.

As to `CN1COCN(Cc2cnc(Cl)s2)/C1=N\[N+](=O)[O-]` [THIAMETHOXAM], the Activity result in [9] is recorded as “Toxic”. Moreover, the LC50 in series [1] stood at 0.52 mgAi/L. The mortality at 7 day in series [7] (oral) was found to be 66.8%.

Consider `CCOP(=S)(OCC)Oc1ncn(-c2ccccc2)n1` [TRIAZOPHOS], for which the mortality at 8 h in series [6] was 100%. The LC50 in series [1] is 1.253 mgAi/L. In addition, in [7], the mortality at 7 day was 54.6%.
